US11746370B2, “Methods and compositions for assessing and treating intraocular diseases and disorders” (SMILEBIOTEK ZHUHAI LIMITED, priority 2017, dated 2023)
Entries after “also recorded” stand apart in the source; their conditions may differ.

What was measured:
[1] = system: Bacillus megaterium; experiment: Antibiotic sensitivity screening test in petri dishes, minimum inhibitory concentration (MIC) method; type: cell-based; details: FIG. 27; for sensitivity of Bacillus megaterium / control of its growth in vitro: agar medium with antibiotic, 1*10^7 bacteria per culture, 37° C., 24 h
Method: The bacterial culture medium (HuanKai Microbial, Guangzhou, China) containing peptone 5 g, beef extract 3 g, NaCl 5 g, agar 15 g, and MnSO4 5 mg in 1 L ddH2O (pH=7.2) was prepared in conical flask (Drtech, Guangzhou, China) and was sterilized in the autoclave (HIRAYAMA, HEV-50, Japan) at 121° C. for 30 min. Antibiotics (ampicillin, vancomycin, neomycin, metronidazole, and tetracycline, purchased from Sigma, USA) at various concentrations were added into cooled medium. Bacillus megaterium (total 1*10^7 per culture) was cultured in the incubator (HettCube 200, Germany) at 37° C. for 24 h.
To test whether antibiotics can control the growth of Bacillus megaterium in vitro and in vivo, an antibiotic sensitivity screening test in petri dishes was carried out. The sensitivity of Bacillus megaterium to several major antimicrobial agents including Ampicillin, vancomycin, neomycin, metronidazole, and tetracycline were examined using the minimum inhibitory concentration (MIC) method.

[2] = system: Bacillus megaterium; experiment: Bacillus megaterium subretinal inoculation model, bacteria-induced drusenoid pathology in monkey retinal tissues; type: in vivo; details: intravitreous 0.5 mg, one injection on Day 2 post bacterial inoculation, FIG. 28
Method: The macaques were sedated by intramuscular injection of a mixture of tiletamine hydrochloride (2.5 mg/kg) and xolazepam hydrochloride (2.5 mg/kg). After instilling topical anesthesia (0.5% proparacaine hydrochloride), the eyes were immediately visualized in vivo using a light microscope. The pupils were then dilated with 0.5% tropicamide and 0.5% phenylephrine to obtain the fundus photographs. Then a 35 gauge anterior chamber cannula was inserted through a sclerotomy and advanced through the vitreous. Under microscopic monitoring, […] of PBS (with or without bacteria) was injected into the subretinal space between photo receptors and RPE, using a NanoFil Syringe Nanofil-100 for Microinjection (World Precision Instruments, USA). All procedures were done using sterile instruments. The macaque was euthanized 47 days post inoculation and the eyeball was enucleated for histological analyses. The eyeballs were fixed in 4% paraformaldehyde for 48 h and then embedded in paraffin. Sections were cut on a microtome at 6 μm and stained with H&E.
(§1) Next, Bacillus megaterium subretinal inoculation model was used to test whether antibiotics might be able to change the bacteria-induced drusenoid pathology in monkey retinal tissues.

[3] = Intraocular administration in monkey, ocular complications; type: in vivo; details: data not shown
Description: as §1

Compound | fold less effective in controlling the growth of Bacillus megaterium ([1]; compared with neomycin) [fold] | size of drusenoid lesion in retinal tissue [2] | sensitivity of Bacillus megaterium / control of its growth in vitro [1] | ocular complications [3]
Cc1ncc([N+](=O)[O-])n1CCO [metronidazole] | 10000 | – | – | –
CN[C@H](CC(C)C)C(=O)N[C@H]1C(=O)N[C@@H](CC(N)=O)C(=O)N[C@H]2C(=O)N[C@H]3C(=O)N[C@H](C(=O)N[C@H](C(=O)O)c4cc(O)cc(O)c4-c4cc3ccc4O)[C@H](O)c3ccc(c(Cl)c3)Oc3cc2cc(c3O[C@@H]2O[C@H](CO)[C@@H](O)[C@H](O)[C@H]2O[C@H]2C[C@](C)(N)[C@H](O)[C@H](C)O2)Oc2ccc(cc2Cl)[C@H]1O [vancomycin] | – | reduction in the size of drusenoid lesion | able to inhibit the growth | –
neomycin | – | – | most sensitive; also recorded: best in vitro activity | significant ocular complications including ophthalmatrophia
